Results published in PubChem BioAssay AID1963424 (Molecular Pharmacology Branch, DTP, NCI, 2024).
“And” between values parts separate entries of the source, which are not always exact repeats. Equal values may be shown once.

Tested on: 327498-153-R-J2-PDC complex spheroid growth, % test/control
Assay: Anticancer human tumor 327498-153-R-J2-PDC patient-derived uterine carcinosarcoma cell line growth inhibition [Asc]
Details: for viability, T/C: stronger effect = lower value
Method: Multicellular complex tumor spheroid response to apoptosis pathway targeting inhibitors Alrizomadlin, Pelcitoclax, and Dasminapant in combination with a variety of drugs and investigational agents in selected tumor cell lines
The MDM2 inhibitor alrizomadlin, the Bcl-2/Bcl-xL inhibitor pelcitoclax, and the IAPs inhibitor dasminapant were evaluated both individually and in combination with standard of care and investigational anticancer small molecules within a complex spheroid model of solid tumors. . Complex spheroids include a stromal component modeled by human endothelial cells (HUVEC) and fibroblasts modeled by human mesenchymal stem cells (MSCs). The concentration ranges selected for each drug and investigational agent were based upon clinically achievable concentrations if the clinical Cmax of the agent was known.
Compounds. The drugs and investigational agents: alrizomadlin (APG-115; NSC831270), pelcitoclax (APG-1252; NSC835773), dasminapant (APG-1387;NSC834197), TAK-243 (NSC785004), copanlisib (NSC809693), olaparib (NSC753686), talazoparib (NSC767125), cobimetinib (NSC 768068), eltanexor (KPT-8602, NSC 794443), abemaciclib (NSC 768073), sotorasib (NSC818433), adagrasib (NSC 831453), MRTX-1133 (NSC 836407), Iadademestat (ORY1001, NSC 806812), and RMC-4630 (NSC839698), were obtained from the NCI Developmental Therapeutics Program Chemical Repository. The FDA-approved anticancer drug set is available from the Developmental Therapeutics Program at https://dtp.cancer.gov/organization/dscb/obtaining/available plates.htm. […] The stock solutions were prepared in dimethyl sulfoxide (DMSO, Sigma-Aldrich, St. Louis, MO, cat. D2650) at 800-fold the tested concentration and stored at -70 degrees C prior to their use. All drugs and investigational agents were tested over a range starting from a high concentration at or near the clinical Cmax and decreasing in half-log increments. If the clinical Cmax for an agent had not been determined, the highest concentration tested was 10 microM.
The patient-derived cancer (PDC) cell lines include five colon adenocarcinomas: 186277-243-T-J2-PDC, 616215-338-R-J1-PDC, 439559-082-T-J2-PDC, 463943-066-T-J2-PDC, and 519858-162-T-J1-PDC; three pancreatic carcinomas: 323965-272-R-J2-PDC, 521955-158-R6-J3-PDC, and 521955-158-R2-J5-PDC; two uterine sarcomas: 327498-152-R-J2-PDC and 993429-296-R-J1-PDC; two rhabdomyosarcomas: 755483-174-R-J1-PDC and 772245-204-R-J1-PDC; two soft tissue sarcomas: 126254-015-R-J1-PDC and 494315-158-R-J1-PDC; two malignant fibrous histiocytomas: 317291-083-R-J1-PDC and 596521-263-R-J1-PDC; two breast carcinomas: 171881-019-R-J1-PDC and 885512-296-R-J2-PDC; and one ovarian carcinoma: 6556581-035-R-J-PDC were obtained from the NCI PDMR, (https://pdmr.cancer.gov). The established cell lines HSSY-2 synovial sarcoma (RRID:CVCL 8719), SYO-1 synovial sarcoma (RRID:CVCL_7146), MPNST malignant peripheral neural sheath tumor were obtained from the Sloan Kettering Institute. The following established cell lines were purchased from the American Type Culture Collection (ATCC, Manassas, VA), Sor the received from the NCI repository:, PANC-1 pancreatic carcinoma (CRL-1469, RRID:CVCL_0480), OVCAR-5 ovarian carcinoma (RRID:CVCL_1628), OVCAR-8 ovarian carcinoma (RRID:CVCL_1629), , MCF-7 breast carcinoma (CRL-12584, RRID:CVCL_0031), MDA-MB-231 breast carcinoma (CRL-12532, RRID:CVCL_0062), NCI-H1876 small cell lung carcinoma (CRL-5902, RRID:CVCL_1503), NCI-H510A small cell lung carcinoma (HTB-184, RRID:CVCL_1565), NCI-H1417 (CRL-5869, RRID:CVCL_1469), and NCI-H196 small cell lung carcinoma (CRL-5823, RRID:CVCL_1509). Dr. Peter Houghton (Greehey Children's Cancer Research Institute, University of Texas Health Science Center, San Antonio, TX) provided Rh-18 rhabdomyosarcoma (RRID:CVCL_1659). Pooled donor human umbilical vein endothelial cells (HUVEC, Lonza, cat. CC-2519) and human mesenchymal stem cells (hMSC, Lonza, cat. PT-2501) were purchased from Lonza (Walkersville, MD).
Cell Culture. […]

[1] = curve of first compound, second compound 0.1 µM
[2] = curve of first compound, second compound 0.316 µM
[3] = curve of first compound, second compound 1 µM
[4] = curve of first compound, second compound 3.16 µM
[5] = curve of first compound, second compound 10 µM
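Note: spheroids exposed to compound for 7 days after 3 days of growth.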
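Throughout, for viability, T/C: 100% = DMSO vehicle control wells.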

`C=C(F)C(=O)N1CCN(c2nc(OCC3CCCN3C)nc3c2CCN(c2cccc4cccc(Cl)c24)C3)CC1CC#N` (configuration not stated) + Cc1c(S(C)(=O)=O)c(-c2cc(F)cc(N3CCN(c4ccc(NS(=O)(=O)c5ccc(NC(CCN6CCC(C(=O)OCCCP(=O)(O)O)CC6)CSc6ccccc6)c(S(=O)(=O)C(F)(F)F)c5)cc4)CC3)c2)c(-c2ccc(Cl)cc2)n1C(C)C was tested, and the IC50 [1] was 756 nM, the IC50 [2] was 633 nM and the IC50 [3] was 546 nM. The IC50 [4] was 512 nM, the IC50 [5] was 1590 nM and the viability, T/C (second compound 0.1 µM, first compound 0.0316 µM) was 63%. It also gave a viability, T/C (second compound 0.1 µM, first compound 0.1 µM) of 57.9%, a viability, T/C (second compound 0.1 µM, first compound 0.316 µM) of 62.2% and a viability, T/C (second compound 0.1 µM, first compound 1 µM) of 46.4%. For the same molecule, the viability, T/C (second compound 0.1 µM, first compound 3.16 µM) was 5.7%, the viability, T/C (second compound 0.1 µM, first compound 10 µM) was 0.14% and the viability, T/C (second compound 0.316 µM, first compound 0.0316 µM) was 66.6%. The viability, T/C (second compound 0.316 µM, first compound 0.1 µM) was 63.4%, the viability, T/C (second compound 0.316 µM, first compound 0.316 µM) was 56% and the viability, T/C (second compound 0.316 µM, first compound 1 µM) was 43.6%. The viability, T/C (second compound 0.316 µM, first compound 3.16 µM) was 3.41%, the viability, T/C (second compound 0.316 µM, first compound 10 µM) was 0.12% and the viability, T/C (second compound 1 µM, first compound 0.0316 µM) was 63.9%. The viability, T/C (second compound 1 µM, first compound 0.1 µM) was 58.5%, the viability, T/C (second compound 1 µM, first compound 0.316 µM) was 55.9% and the viability, T/C (second compound 1 µM, first compound 1 µM) was 40.8%. It also gave a viability, T/C (second compound 1 µM, first compound 3.16 µM) of 3.33%, a viability, T/C (second compound 1 µM, first compound 10 µM) of 0.11% and a viability, T/C (second compound 3.16 µM, first compound 0.0316 µM) of 68.1%. For the same molecule, the viability, T/C (second compound 3.16 µM, first compound 0.1 µM) was 60.1%, the viability, T/C (second compound 3.16 µM, first compound 0.316 µM) was 50.7% and the viability, T/C (second compound 3.16 µM, first compound 1 µM) was 41.3%. The viability, T/C (second compound 3.16 µM, first compound 3.16 µM) was 2.02%, the viability, T/C (second compound 3.16 µM, first compound 10 µM) was 0.12% and the viability, T/C (second compound 10 µM, first compound 0.0316 µM) was 164%. For the same molecule, the viability, T/C (second compound 10 µM, first compound 0.1 µM) was 150%, the viability, T/C (second compound 10 µM, first compound 0.316 µM) was 130% and the viability, T/C (second compound 10 µM, first compound 1 µM) was 82%. It also gave a viability, T/C (second compound 10 µM, first compound 3.16 µM) of 3.02% and a viability, T/C (second compound 10 µM, first compound 10 µM) of 0.19%.
Work on `CCN1C(C(=O)NC23CCC(C(=O)O)(CC2)CC3)C(c2cccc(Cl)c2F)C2(C(=O)Nc3cc(Cl)ccc32)C12CCCCC2` (configuration not stated) + Cc1c(S(C)(=O)=O)c(-c2cc(F)cc(N3CCN(c4ccc(NS(=O)(=O)c5ccc(NC(CCN6CCC(C(=O)OCCCP(=O)(O)O)CC6)CSc6ccccc6)c(S(=O)(=O)C(F)(F)F)c5)cc4)CC3)c2)c(-c2ccc(Cl)cc2)n1C(C)C yielded an IC50 [1] of 147 nM, an IC50 [2] of 136 nM and an IC50 [3] of 106 nM. It also gave an IC50 [4] of 122 nM, an IC50 [5] of 172 nM and a viability, T/C (second compound 0.1 µM, first compound 0.00949 µM) of 92.5%. It also gave a viability, T/C (second compound 0.1 µM, first compound 0.03 µM) of 84.5%, a viability, T/C (second compound 0.1 µM, first compound 0.0949 µM) of 64.8% and a viability, T/C (second compound 0.1 µM, first compound 0.3 µM) of 26.6%. For the same molecule, the viability, T/C (second compound 0.1 µM, first compound 0.949 µM) was 6.43%, the viability, T/C (second compound 0.1 µM, first compound 3 µM) was 2% and the viability, T/C (second compound 0.316 µM, first compound 0.00949 µM) was 87.4%. For the same molecule, the viability, T/C (second compound 0.316 µM, first compound 0.03 µM) was 89%, the viability, T/C (second compound 0.316 µM, first compound 0.0949 µM) was 64.4% and the viability, T/C (second compound 0.316 µM, first compound 0.3 µM) was 17%. For the same molecule, the viability, T/C (second compound 0.316 µM, first compound 0.949 µM) was 8.41%, the viability, T/C (second compound 0.316 µM, first compound 3 µM) was 2.1% and the viability, T/C (second compound 1 µM, first compound 0.00949 µM) was 91.4%. For the same molecule, the viability, T/C (second compound 1 µM, first compound 0.03 µM) was 94.5%, the viability, T/C (second compound 1 µM, first compound 0.0949 µM) was 50.6% and the viability, T/C (second compound 1 µM, first compound 0.3 µM) was 17.8%. For the same molecule, the viability, T/C (second compound 1 µM, first compound 0.949 µM) was 4.84%, the viability, T/C (second compound 1 µM, first compound 3 µM) was 1.36% and the viability, T/C (second compound 3.16 µM, first compound 0.00949 µM) was 78.9%. The viability, T/C (second compound 3.16 µM, first compound 0.03 µM) was 79%, the viability, T/C (second compound 3.16 µM, first compound 0.0949 µM) was 56.1% and the viability, T/C (second compound 3.16 µM, first compound 0.3 µM) was 23.8%. For the same molecule, the viability, T/C (second compound 3.16 µM, first compound 0.949 µM) was 6.76%, the viability, T/C (second compound 3.16 µM, first compound 3 µM) was 1.6% and the viability, T/C (second compound 10 µM, first compound 0.00949 µM) was 166%. The viability, T/C (second compound 10 µM, first compound 0.03 µM) was 162%, the viability, T/C (second compound 10 µM, first compound 0.0949 µM) was 80.9% and the viability, T/C (second compound 10 µM, first compound 0.3 µM) was 23.5%. For the same molecule, the viability, T/C (second compound 10 µM, first compound 0.949 µM) was 9.14% and the viability, T/C (second compound 10 µM, first compound 3 µM) was 1.51%.
`C=CC(=O)N1CCN(c2nc(=O)n(-c3c(C)ccnc3C(C)C)c3nc(-c4c(O)cccc4F)c(F)cc23)C(C)C1` (configuration not stated) was tested, and the viability, T/C (compound 0.0316 µM) was 79% and 84.1% and 96.8%, the viability, T/C (compound 0.1 µM) was 81.7% and 85.2% and 87.5% and the viability, T/C (compound 0.316 µM) was 63.5% and 71.4% and 76%. The viability, T/C (compound 1 µM) was 71.2% and 69.4% and 84.9%, the viability, T/C (compound 3.16 µM) was 66.3% and 67.2% and 77.7% and the viability, T/C (compound 10 µM) was 60.9% and 59.4% and 66%. For the same molecule, the IC50 (curve of compound) was > 10000 nM.
